# Data published in ChEMBL document CHEMBL3885881, “DrugMatrix”.
# Species: Rattus norvegicus
# Assay: DrugMatrix - Regimen: Daily Repeat
# Assay type: toxicity, organism-based, Sprague-Dawley
# Design: regimen Daily Repeat, gender Male, age 6-8 weeks
# Conditions: in vivo, sc, route subcutaneous, […]; for ABSOLUTE BASOPHIL / ABSOLUTE EOSINOPHIL / ABSOLUTE LYMPHOCYTE / ABSOLUTE MONOCYTE / ABSOLUTE SEGMENTED NEUTROPHIL / BASOPHIL / EOSINOPHIL / ERYTHROCYTE COUNT / HEMATOCRIT / LEUKOCYTE COUNT / MEAN CORPUSCULAR HEMOGLOBIN / MEAN CORPUSCULAR HEMOGLOBIN CONCENTRATION / MEAN CORPUSCULAR VOLUME / MONOCYTE / NEUTROPHIL / NUCLEATED RED BLOOD CELLS / PLATELET COUNT: tissue Blood; for ALANINE AMINOTRANSFERASE / ALBUMIN / ALKALINE PHOSPHATASE / ASPARTATE AMINOTRANSFERASE / BLOOD UREA NITROGEN / CHLORIDE / CHOLESTEROL / CREATINE PHOSPHOKINASE / CREATININE / GLUCOSE / LACTATE DEHYDROGENASE / LIPASE / PHOSPHORUS / POTASSIUM / TOTAL BILIRUBIN / URIC ACID: tissue Plasma
# [1] = 79 mg/kg, 120 h, dose level High, time 5 day
# [2] = 72 h, dose 1.3 mg/Kg, dose level Low, time 3 day
# [3] = 120 h, dose 1.3 mg/Kg, dose level Low, time 5 day
structure (smiles),measurement,setting,value
C[C@H]1C[C@H]2[C@@H]3CCC4=CC(=O)C=C[C@]4(C)[C@@]3(F)[C@@H](O)C[C@]2(C)[C@@]1(O)C(=O)CO [BETAMETHASONE],ABSOLUTE BASOPHIL,[1],0 CELLS/uL
same,ABSOLUTE EOSINOPHIL,[1],0 CELLS/uL
same,ABSOLUTE LYMPHOCYTE,[1],513.67 CELLS/uL
same,ABSOLUTE MONOCYTE,[1],201.67 CELLS/uL
same,ABSOLUTE SEGMENTED NEUTROPHIL,[1],19451.33 CELLS/uL
same,BASOPHIL,[1],0%
same,EOSINOPHIL,[1],0%
same,ERYTHROCYTE COUNT,[1],5.57 x10E6/uL
same,HEMATOCRIT,[1],34.53%
same,LEUKOCYTE COUNT,[1],20.17 x10E3/uL
same,MEAN CORPUSCULAR HEMOGLOBIN,[1],23.77 pg
same,MEAN CORPUSCULAR HEMOGLOBIN CONCENTRATION,[1],38.47 G/DL
same,MEAN CORPUSCULAR VOLUME,[1],61.87 fL
same,MONOCYTE,[1],1%
same,NEUTROPHIL,[1],95%
same,NUCLEATED RED BLOOD CELLS,[1],0 /100WBC
same,PLATELET COUNT,[1],893 x10E3/uL
same,ALANINE AMINOTRANSFERASE,[1],251.67 u/L
same,ALBUMIN,[1],4.5 G/DL
same,ALKALINE PHOSPHATASE,[1],329 u/L
same,ASPARTATE AMINOTRANSFERASE,[1],307.33 u/L
same,BLOOD UREA NITROGEN,[1],21.67 mg/dL
same,CHLORIDE,[1],93.67 MEQ/L
same,CHOLESTEROL,[1],105 mg/dL
same,CREATINE PHOSPHOKINASE,[1],200.33 u/L
same,CREATININE,[1],0.3 mg/dL
same,GLUCOSE,[1],505.67 mg/dL
same,LACTATE DEHYDROGENASE,[1],602 u/L
same,LIPASE,[1],11.33 u/L
same,PHOSPHORUS,[1],11.1 mg/dL
same,POTASSIUM,[1],5.39 MEQ/L
same,TOTAL BILIRUBIN,[1],0.23 mg/dL
same,URIC ACID,[1],1 mg/dL
same,ABSOLUTE BASOPHIL,[2],0 CELLS/uL
same,ABSOLUTE EOSINOPHIL,[2],15.33 CELLS/uL
same,ABSOLUTE LYMPHOCYTE,[2],4290.33 CELLS/uL
same,ABSOLUTE MONOCYTE,[2],15.33 CELLS/uL
same,ABSOLUTE SEGMENTED NEUTROPHIL,[2],845.67 CELLS/uL
same,BASOPHIL,[2],0%
same,EOSINOPHIL,[2],0.33%
same,ERYTHROCYTE COUNT,[2],5.47 x10E6/uL
same,HEMATOCRIT,[2],33.27%
same,LEUKOCYTE COUNT,[2],5.17 x10E3/uL
same,MEAN CORPUSCULAR HEMOGLOBIN,[2],24.57 pg
same,MEAN CORPUSCULAR HEMOGLOBIN CONCENTRATION,[2],40.37 G/DL
same,MEAN CORPUSCULAR VOLUME,[2],60.9 fL
same,MONOCYTE,[2],0.33%
same,NEUTROPHIL,[2],17%
same,NUCLEATED RED BLOOD CELLS,[2],0 /100WBC
same,PLATELET COUNT,[2],1195.33 x10E3/uL
same,ALANINE AMINOTRANSFERASE,[2],49.67 u/L
same,ALBUMIN,[2],5.1 G/DL
same,ALKALINE PHOSPHATASE,[2],401.67 u/L
same,ASPARTATE AMINOTRANSFERASE,[2],97 u/L
same,BLOOD UREA NITROGEN,[2],15 mg/dL
same,CHLORIDE,[2],98.67 MEQ/L
same,CHOLESTEROL,[2],79.33 mg/dL
same,CREATINE PHOSPHOKINASE,[2],415.33 u/L
same,CREATININE,[2],0.19 mg/dL
same,GLUCOSE,[2],120 mg/dL
same,LACTATE DEHYDROGENASE,[2],165.33 u/L
same,LIPASE,[2],11 u/L
same,PHOSPHORUS,[2],11.13 mg/dL
same,POTASSIUM,[2],6.2 MEQ/L
same,TOTAL BILIRUBIN,[2],0.17 mg/dL
same,URIC ACID,[2],0.9 mg/dL
same,ABSOLUTE BASOPHIL,[3],0 CELLS/uL
same,ABSOLUTE EOSINOPHIL,[3],75.67 CELLS/uL
same,ABSOLUTE LYMPHOCYTE,[3],4789.67 CELLS/uL
same,ABSOLUTE MONOCYTE,[3],25 CELLS/uL
same,ABSOLUTE SEGMENTED NEUTROPHIL,[3],1976.33 CELLS/uL
same,BASOPHIL,[3],0%
same,EOSINOPHIL,[3],1%
same,ERYTHROCYTE COUNT,[3],6.27 x10E6/uL
same,HEMATOCRIT,[3],38.47%
same,LEUKOCYTE COUNT,[3],6.87 x10E3/uL
same,MEAN CORPUSCULAR HEMOGLOBIN,[3],24.07 pg
same,MEAN CORPUSCULAR HEMOGLOBIN CONCENTRATION,[3],39.23 G/DL
same,MEAN CORPUSCULAR VOLUME,[3],61.3 fL
same,MONOCYTE,[3],0.33%
same,NEUTROPHIL,[3],30.33%
same,NUCLEATED RED BLOOD CELLS,[3],0 /100WBC
same,PLATELET COUNT,[3],1459.67 x10E3/uL
same,ALANINE AMINOTRANSFERASE,[3],71 u/L
same,ALBUMIN,[3],5.1 G/DL
same,ALKALINE PHOSPHATASE,[3],397 u/L
same,ASPARTATE AMINOTRANSFERASE,[3],114 u/L
same,BLOOD UREA NITROGEN,[3],17.33 mg/dL
same,CHLORIDE,[3],102.67 MEQ/L
same,CHOLESTEROL,[3],70.33 mg/dL
same,CREATINE PHOSPHOKINASE,[3],195.67 u/L
same,CREATININE,[3],0.16 mg/dL
same,GLUCOSE,[3],164.67 mg/dL
same,LACTATE DEHYDROGENASE,[3],354.67 u/L
same,LIPASE,[3],9.67 u/L
same,PHOSPHORUS,[3],13.03 mg/dL
same,POTASSIUM,[3],7 MEQ/L
same,TOTAL BILIRUBIN,[3],0.2 mg/dL
same,URIC ACID,[3],1.8 mg/dL
